Data published in patent US8889903B2, “Synthesis of rare earth metal extractant” (Shin-Etsu Chemical Co., Ltd., priority 2010, dated 2014).
≈ marks a conversion by molar mass, not a printed value.

Assay: Solubility in water
Type: physicochemical
Procedure: If B/A<1.0, which means an excess of diglycolic anhydride for reaction, the desired dialkyl diglycol amic acid is obtained as the reaction product, in which unreacted diglycolic acid may remain. When solvent extraction is carried out using dialkyl diglycol amic acid having diglycolic acid left therein, no satisfactory separation ability is available and the solution becomes white turbid because clad is formed between organic phase and aqueous phase. […] This is because the diglycolic acid remaining along with the metal extractant, dialkyl diglycol amic acid forms a complex with a rare earth metal ion, inhibiting satisfactory extraction and separation. That is, diglycolic acid becomes an inhibitory factor to extraction. To obtain diglycolic acid-free dialkyl diglycol amic acid as the rare earth metal extractant capable of normal extraction and separation, the step of removing unreacted diglycolic acid is necessary as in the prior art method. Specifically, the water-soluble diglycolic acid must be removed by removing the synthesis medium and washing the reaction product with water. […] In order to use the dialkyl diglycol amic acid in crystallized form as the rare earth metal extractant, filtration and drying steps are needed. The process becomes less efficient because extra steps are necessary as compared with the range of 1.0≦B/A≦1.2.

## CCCCCCCCN(CCCCCCCC)C(=O)COCC(=O)O [DODGAA, N,N-dioctyl-3-oxapentane-1,5-amic acid]
  solubility in water: 6.2 µM (≈ 2.22 µg/mL)
